The experiment concerns the target T1, CCR2 (Homo sapiens, UniProt P41597).
T1 construct: (leukophoresis pack); host or cells: human peripheral blood mononuclear cells (PBMCs) from a normal human leukophoresis pack
Nature of the experiment: hCCR2 (125-I hMCP-1) small molecule binding assay on human PBMCs. As to conditions: 125I-MCP-1, human PBMCs. The text has this:
The CCR2 antagonist activity of compounds of the invention can be reported as the inhibitor concentration required for 50% inhibition (IC50 values) of specific binding in receptor binding assays using 125I-labeled MCP-1, as ligand, and Peripheral Blood Mononuclear Cells (PBMCs) prepared from normal human whole blood via density gradient centrifugation. Specific binding is defined as the total binding (e.g., total cpm on filters) minus the non-specific binding. Non-specific binding is defined as the amount of cpm still defected in the presence of excess unlabeled competitor (e.g., MCP-1),
Human PBMCs were used to test compounds of the invention in a binding assay. For example, 200,000 to 500,000 cells were incubated with 0.1 to 0.2 nM 125I-labeled MCP-1, with or without unlabeled competitor (10 nM MCP-1) or various concentrations of compounds to be tested. 125I-labeled MCP-1, were prepared by suitable methods or purchased from commercial vendors (Perkin Elmer, Boston Mass.). The binding reactions were performed in 50 to 250 μL of a binding buffer consisting of […] pH 7.2, and 0.1% BSA (bovine serum albumin), for 30 minutes at room temperature. The binding reactions were terminated by harvesting the membranes by rapid filtration through glass fiber filters (Perkin Elmer) which was presoaked in 0.3% polyethyleneimine or Phosphate Buffered Saline (PBS). The filters were rinsed with approximately 600 μL of binding buffer containing, 0.5 M NaCl or PBS, then dried, and the amount of bound radioactivity was determined by counting on a Gamma Counter (Perkin Elmer).
More specifically, the following assay may be employed to determine IC50 values for the compounds of the present invention.
hCCR2 (125-I hMCP-1) Small Molecule Binding Assay
Normal human leukophoresis pack contents, available from Biological Specialty Corporation, Colmar, Pa., is diluted 1:1 with PBS, divided into 50 ml conical tubes (preferably less than 40 mls per tube), and underlayed with 10 mls of Ficoll-Paque PLUS (GE Healthcare 17-1440-02). The tubes are centrifuged at 2800 rpm in a clinical centrifuge at room temperature for 30 mins, with no brake. The plasma layer is suctioned, and the buffycoat layer is collected. The collected buffycoat layer is washed twice with 50 mls PBS, and centrifuged at 1400 rpm with brake. The cells are counted. The cells are then diluted to 1×10^7 cells per ml in binding buffer.
96 well plates (such as, for example, Millipore MultiScreen96 plates) are pre-wet with about 100 μl binding buffer (RPMI+0.1% BSA+20 mM HEPES), and blotted just prior to compound addition.
5 μl of 50 μM test compounds in 100% DMSO are dotted onto U-bottom polypropylene 96-well plates.
245 μl per well of Binding Buffer is added to each well for 1 μM compound concentration in 2% DMSO.
50 μl of 1 μM compound is transferred to pre-wetted Millipore plates. 50 μl per well of 1×10E7 cells per ml of freshly prepared human PBMCs are added.
The samples are pre-incubated at room temperature for 30 minutes or 1 hour.
50 μl of 450 pM 125-I-hMCP-1 (Perkin-Elmer/NEN cat#NEX332025UC) is added for a final concentration 125-I-hMCP-1 of 150 pM per well.
The final test compound concentration is 0.333 uM in 150 μl total volume with 0.67% DMSO in all wells. Controls for this assay consist of 0% inhibition and 100% inhibition with 1 uM hMCP-1 (saturating conditions). All wells are run in duplicate. Controls may be in replicates of eight.
The samples are incubated at room temperature for 30 minutes.
The buffer is suctioned through the Millipore plates. The plates are washed three times with Wash Buffer (PRMI+0.1% BSA+20 mM HEPES+ 0.4 M NaC).
The plate underdrain is removed. The plate filters are allowed to dry. The filters are then punched out into plastic tubes.
Finally, the sample is counted an a Gamma Counter.
All IC50 plates were repeated for an n=2.
The following table summarizes the IC50 values identified through the described assay.

Setting [1] is: 30 min preincubation, read-out: IC50 (nM) 30 min preinc.
The mark [2] stands for this setting: 1 hr preincubation, read-out: IC50 (nM) 1 hr preinc.

Like-named read-outs stand apart in the source and are kept apart here.

T1 sequence (P41597 whole entry): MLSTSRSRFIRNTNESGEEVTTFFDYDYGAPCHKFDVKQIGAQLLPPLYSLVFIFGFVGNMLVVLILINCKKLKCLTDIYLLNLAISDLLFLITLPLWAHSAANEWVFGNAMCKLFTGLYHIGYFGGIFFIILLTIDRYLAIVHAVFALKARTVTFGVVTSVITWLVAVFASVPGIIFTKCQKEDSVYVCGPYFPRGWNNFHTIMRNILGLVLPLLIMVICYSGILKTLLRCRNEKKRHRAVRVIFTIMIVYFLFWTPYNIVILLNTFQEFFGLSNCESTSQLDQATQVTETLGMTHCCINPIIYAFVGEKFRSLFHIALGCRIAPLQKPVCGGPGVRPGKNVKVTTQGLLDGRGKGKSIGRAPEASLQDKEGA

Consider `CO[C@@H]1COCC[C@@H]1N[C@@H]1CC[C@](CC(F)F)(C(=O)N2C[C@@H]3C[C@H]2CN3c2cc(C(F)(F)F)ccn2)C1` [Example 25, 1,5-anhydro-2,3-dideoxy-3-{[(1R,3S)-3-(2,2-difluoroethyl)-3-({(1S,4S)-5-[4-(trifluoromethyl)pyridin-2-yl]-2,5-diazabicyclo[2.2.1]hept-2-yl}carbonyl)cyclopentyl]amino}-4-O-methyl-D-erythro-pentitol], for which the concentration for half-maximal inhibition (IC50) reads like this: under setting [1], 6.58 nM; under setting [2], 0.93 nM.
On the same counts, the results for `CO[C@@H]1COCC[C@@H]1N[C@@H]1CC[C@](CC(F)F)(C(=O)N2C[C@@H]3C[C@H]2CN3c2ccnc(C(F)(F)F)c2)C1` [Example 26, 1,5-anhydro-2,3-dideoxy-3-{[(1R,3S)-3-(2,2-difluoroethyl)-3-({(1S,4S)-5-[2-(trifluoromethyl)pyridin-4-yl]-2,5-diazabicyclo[2.2.1]hept-2-yl}carbonyl)cyclopentyl]amino}-4-O-methyl-D-erythro-pentitol] are 29.3 nM and 7.85 nM.
Consider `CO[C@@H]1COCC[C@@H]1N[C@@H]1CC[C@](CC(F)F)(C(=O)N2C[C@@H]3C[C@H]2CN3c2nccc(C(F)(F)F)n2)C1` [Example 27, 1,5-anhydro-2,3-dideoxy-3-{[(1R,3S)-3-(2,2-difluoroethyl)-3-({(1S,4S)-5-[4-(trifluoromethyl)pyrimidin-2-yl]-2,5-diazabicyclo[2.2.1]hept-2-yl}carbonyl)cyclopentyl]amino}-4-O-methyl-D-erythro-pentitol], for which the half-inhibitory concentration (IC50) reads like this: under setting [1], 16.2 nM; under setting [2], 2.04 nM.
On to `CO[C@@H]1COCC[C@@H]1N[C@@H]1CC[C@](CC(F)F)(C(=O)N2C[C@@H]3C[C@H]2CN3c2cccc(C(F)(F)F)n2)C1` [Example 28, 1,5-anhydro-2,3-dideoxy-3-{[(1R,3S)-3-(2,2-difluoroethyl)-3-({(1S,4S)-5-[6-(trifluoromethyl)pyridin-2-yl]-2,5-diazabicyclo[2.2.1]hept-2-yl}carbonyl)cyclopentyl]amino}-4-O-methyl-D-erythro-pentitol], for which the IC50 under setting [2] worked out at 1.88 nM.
Same read-out and setting: the value for `CO[C@@H]1COCC[C@@H]1N[C@@H]1CC[C@](CC(F)F)(C(=O)N2C[C@@H]3C[C@H]2CN3c2cncc(C(F)(F)F)n2)C1` [Example 29, 1,5-anhydro-2,3-dideoxy-3-{[(1R,3S)-3-(2,2-difluoroethyl)-3-({(1S,4S)-5-[6-(trifluoromethyl)pyrazin-2-yl]-2,5-diazabicyclo[2.2.1]hept-2-yl}carbonyl)cyclopentyl]amino}-4-O-methyl-D-erythro-pentitol] was 2.75 nM.
For `CO[C@@H]1COCC[C@@H]1N[C@@H]1CC[C@](CC(F)F)(C(=O)N2C[C@@H]3C[C@H]2CN3c2ccnc(C(F)(F)F)n2)C1` [Example 30, 1,5-anhydro-2,3-dideoxy-3-{[(1R,3S)-3-(2,2-difluoroethyl)-3-({(1S,4S)-5-[2-(trifluoromethyl)pyrimidin-4-yl]-2,5-diazabicyclo[2.2.1]hept-2-yl}carbonyl)cyclopentyl]amino}-4-O-methyl-D-erythro-pentitol], the half-maximal inhibitory concentration (IC50) under setting [1] came out at 32.9 nM and the IC50 under setting [2] came out at 11.8 nM.
Turning to `CO[C@@H]1COCC[C@@H]1N[C@@H]1CC[C@](CC(F)F)(C(=O)N2C[C@@H]3C[C@H]2CN3c2cc(C(F)(F)F)cnn2)C1` [Example 31, 1,5-anhydro-2,3-dideoxy-3-{[(1R,3S)-3-(2,2-difluoroethyl)-3-({(1S,4S)-5-[5-(trifluoromethyl)pyridazin-3-yl]-2,5-diazabicyclo[2.2.1]hept-2-yl}carbonyl)cyclopentyl]amino}-4-O-methyl-D-erythro-pentitol], the IC50 under setting [2] is 6.35 nM.
As to `CO[C@@H]1COCC[C@@H]1N[C@@H]1CC[C@](CC(F)(F)F)(C(=O)N2C[C@@H]3C[C@H]2CN3c2cc(C(F)(F)F)ncn2)C1` [Example 32, 1,5-anhydro-2,3-dideoxy-4-O-methyl-3-{[(1R,3S)-3-(2,2,2-trifluoroethyl)-3-({(1S,4S)-5-[6-(trifluoromethyl)pyrimidin-4-yl]-2,5-diazabicyclo[2.2.1]hept-2-yl}carbonyl)cyclopentyl]amino}-D-erythro-pentitol], the concentration for half-maximal inhibition (IC50) by setting is: under setting [1], 13.8 nM; under setting [2], 11.7 nM.
As for `CO[C@@H]1COCC[C@@H]1N[C@@H]1CC[C@](CC(F)(F)F)(C(=O)N2C[C@@H]3C[C@H]2CN3c2cc(C(F)(F)F)ccn2)C1` [Example 33, 1,5-anhydro-2,3-dideoxy-4-O-methyl-3-{[(1R,3S)-3-(2,2,2-trifluoroethyl)-3-({(1S,4S)-5-[4-(trifluoromethyl)pyridin-2-yl]-2,5-diazabicyclo[2.2.1]hept-2-yl}carbonyl)cyclopentyl]amino}-D-erythro-pentitol], the half-inhibitory concentration (IC50) is, setting by setting: under setting [1], 57.3 nM; under setting [2], 11.7 nM.
Taken in the same sequence, the figures for `CO[C@@H]1COCC[C@@H]1N[C@@H]1CC[C@](CC(F)(F)F)(C(=O)N2C[C@@H]3C[C@H]2CN3c2ccnc(C(F)(F)F)c2)C1` [Example 34, 1,5-anhydro-2,3-dideoxy-4-O-methyl-3-{[(1R,3S)-3-(2,2,2-trifluoroethyl)-3-({(1S,4S)-5-[2-(trifluoromethyl)pyridin-4-yl]-2,5-diazabicyclo[2.2.1]hept-2-yl}carbonyl)cyclopentyl]amino}-D-erythro-pentitol] were 66.5 nM and 6.94 nM.
Taken in the same sequence, the figures for `CO[C@@H]1COCC[C@@H]1N[C@@H]1CC[C@](CC(F)(F)F)(C(=O)N2C[C@@H]3C[C@H]2CN3c2nccc(C(F)(F)F)n2)C1` [Example 35, 1,5-anhydro-2,3-dideoxy-4-O-methyl-3-{[(1R,3S)-3-(2,2,2-trifluoroethyl)-3-({(1S,4S)-5-[4-(trifluoromethyl)pyrimidin-2-yl]-2,5-diazabicyclo[2.2.1]hept-2-yl}carbonyl)cyclopentyl]amino}-D-erythro-pentitol] were 28.4 nM and 5.52 nM.
With `CO[C@@H]1COCC[C@@H]1N[C@@H]1CC[C@](CC(F)(F)F)(C(=O)N2C[C@@H]3C[C@H]2CN3c2cccc(C(F)(F)F)n2)C1` [Example 36, 1,5-anhydro-2,3-dideoxy-4-O-methyl-3-{[(1R,3S)-3-(2,2,2-trifluoroethyl)-3-({(1S,4S)-5-[6-(trifluoromethyl)pyridin-2-yl]-2,5-diazabicyclo[2.2.1]hept-2-yl}carbonyl)cyclopentyl]amino}-D-erythro-pentitol], the half-maximal inhibitory concentration (IC50) stood at 12.6 nM under setting [1] and 2.19 nM under setting [2].
Consider `CO[C@@H]1COCC[C@@H]1N[C@@H]1CC[C@](CC(F)(F)F)(C(=O)N2C[C@@H]3C[C@H]2CN3c2cncc(C(F)(F)F)n2)C1` [Example 37], for which, under setting [2], the IC50 is 3.68 nM.
Take `CO[C@@H]1COCC[C@@H]1N[C@@H]1CC[C@](CC(F)(F)F)(C(=O)N2C[C@@H]3C[C@H]2CN3c2ccnc(C(F)(F)F)n2)C1` [Example 38, 1,5-anhydro-2,3-dideoxy-4-O-methyl-3-{[(1R,3S)-3-(2,2,2-trifluoroethyl)-3-({(1S,4S)-5-[2-(trifluoromethyl)pyrimidin-4-yl]-2,5-diazabicyclo[2.2.1]hept-2-yl}carbonyl)cyclopentyl]amino}-D-erythro-pentitol]: the IC50 under setting [1] came out at 68.7 nM and the IC50 under setting [2] was 2.02 nM.

The term IC50 denotes the concentration at which inhibition is half-maximal.

Source of the values: patent US8946413B2 (Pfizer Inc., priority 2008, dated 2015).
